This note sets out measurements from paper PMC8640168 (Current Research in Structural Biology, 2021).

In the experiment the target is SaPgsA (Staphylococcus aureus, UniProt P63756). The experiment is described as follows: […]-G3P incorporation into chloroform-soluble PGP, scintillation counting. It counts as biochemical. The conditions noted are these: 1.6 mM [14C]-G3P, 100 mM MgCl2, 20 mM Triton X-100, 100 mM Tris-HCl pH 8.0, 27 C, 50 nM enzyme; detergent micelle (bulk concentration).

A word on the Km: it is the substrate concentration at which the rate is half of its maximum.

With CDP-DAG, the Michaelis-Menten constant (Km) was determined as 400 µM.
